# Key:
# isolated bronchial rings [1] = assay: MgSO4-induced relaxation of methacholine-stimulated bronchial rings from myriocin-treated mice; conditions: rings from mice given intranasal myriocin (20 μg), methacholine then MgSO4 (15 mM); FIG. 5C
# Method: The effect of Mg^2+ supplementation on methacholine-induced contraction of bronchial rings was analyzed by adding MgSO4 (15 mM) to the myograph bath solution following stimulation with methacholine (10 μM).
# SPT = biological target: T1, SPT (Mus musculus, UniProt O35704+P97363); assay: Incorporation of 3H-serine / 3H-sphingosine in lung homogenates after intranasal myriocin; format: in vivo, mice
# T1 construct: from tissue
# T1 sequence (P97363 1-560): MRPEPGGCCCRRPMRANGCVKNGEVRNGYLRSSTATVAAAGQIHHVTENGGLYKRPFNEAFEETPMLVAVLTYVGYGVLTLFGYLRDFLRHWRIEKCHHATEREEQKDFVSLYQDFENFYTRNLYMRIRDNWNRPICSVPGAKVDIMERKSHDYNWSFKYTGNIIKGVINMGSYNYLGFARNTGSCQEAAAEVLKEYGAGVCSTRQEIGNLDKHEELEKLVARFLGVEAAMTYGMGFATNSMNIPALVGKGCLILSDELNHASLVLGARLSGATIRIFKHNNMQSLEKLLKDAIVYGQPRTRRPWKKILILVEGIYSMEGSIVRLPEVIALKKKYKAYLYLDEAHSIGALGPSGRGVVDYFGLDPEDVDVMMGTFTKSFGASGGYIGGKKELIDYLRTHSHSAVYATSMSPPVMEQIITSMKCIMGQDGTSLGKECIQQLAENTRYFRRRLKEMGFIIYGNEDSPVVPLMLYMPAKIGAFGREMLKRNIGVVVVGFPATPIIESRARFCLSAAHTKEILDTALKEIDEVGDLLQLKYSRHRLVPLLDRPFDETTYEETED
# T1 sequence (O35704 1-473): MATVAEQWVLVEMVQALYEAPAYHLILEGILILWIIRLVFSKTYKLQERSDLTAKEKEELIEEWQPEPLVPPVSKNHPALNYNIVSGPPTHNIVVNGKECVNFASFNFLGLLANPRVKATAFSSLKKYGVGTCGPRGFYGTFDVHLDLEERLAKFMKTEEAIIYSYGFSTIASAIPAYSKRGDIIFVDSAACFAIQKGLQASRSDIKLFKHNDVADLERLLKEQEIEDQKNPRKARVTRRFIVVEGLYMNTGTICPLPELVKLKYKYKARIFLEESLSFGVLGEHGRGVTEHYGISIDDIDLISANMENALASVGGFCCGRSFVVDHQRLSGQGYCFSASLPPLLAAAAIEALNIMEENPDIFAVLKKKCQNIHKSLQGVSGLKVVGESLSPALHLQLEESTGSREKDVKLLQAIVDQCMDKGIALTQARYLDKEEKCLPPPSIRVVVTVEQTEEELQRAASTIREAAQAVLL
# T1 sequence (Q8R207 1-71 partner): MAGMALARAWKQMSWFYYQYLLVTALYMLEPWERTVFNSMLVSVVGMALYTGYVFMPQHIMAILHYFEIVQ
# Method: Lungs were harvested following perfusion with phosphate-buffered saline (PBS, Invitrogen, Carlsbad, Calif.) containing 0.6 mM ethylenediamine tetra acetic acid dipotassium salt dehydrate (EDTA, Invitrogen) via the right ventricle to remove blood cells from the pulmonary circulation. The lungs were then homogenized in normal PBS. De-novo sphingolipid synthesis was assessed by evaluating incorporation of ^3H-serine (24.1 Ci/mmol, Perkin Elmer (Boston, Mass.) into ceramide and sphingosine. Sphingolipid synthesis through the recycling pathway was assessed by evaluating incorporation of ^3H-sphingosine (18.2 Ci/mmol, Perkin Elmer (Boston, Mass.) into ceramide and sphingomyelin. In both assays, equal amounts of fresh lung homogenates were incubated for 30 min at 37° C. with 2 μl of the radioactive tracer, followed by lyophilization to determine dry weight, lipid extraction with chloroform/methanol/water (1:1:0.9). The organic phase was evaporated, dissolved in 50 μl chloroform/methanol (1:1) spotted on […] chromatography plates (TLC) (Merck Silica gel 60, Darmstadt, Germany) and chromatographed for 25 min with chloroform-methanol-ammonium hydroxide (65:25:4 v/v). […] The TLC plate was cut at the corresponding lipid spot, mixed with scintillation fluid (Ultima Gold, Packard Instrument Company, CT) and analyzed in a scintillation counter (Perkin Elmer Wallac, Gaithersburg, Md.). […]
# isolated bronchial rings [2] = assay: Myograph contractile response of bronchial rings isolated from myriocin-treated mice; format: in vivo; conditions: rings isolated from mice given myriocin (20 μg) intranasally; dose-dependent manner; FIG. 3C, 3D
# Method: To directly assess bronchial reactivity bronchi were dissected from myriocin treated mice, Sptlc2^+/− or naïve mice, and mounted on hooks in a multiwire myograph system (DMT, Ann Arbor, Mich.) where they were kept at a resting tension of 200-250 mg in Krebs Henseleit (KH) solution at 37° C. (95% O2, 5% CO2). In addition, bronchial rings from naïve mice were bathed in myriocin (10 μM) for 3 h in the myograph before analysis. Mechanical forces were measured isometrically with force transducers interfaced to a data acquisition system (ADInstruments, Colorado Springs, Colo.) and analyzed with LabChart6Pro for Windows. Potassium (80 mM) was used to achieve maximum contraction and methacholine (0.01-10 μM) was added 30 min after washout of the K^+ solution. Contractile responses were measured as percentage of the response to K^+.
# lung inflammation = assay: Assessment of inflammation (BAL cells, lung histology, cytokine mRNA) after myriocin; format: in vivo, mice
# Method: BAL was collected by intratracheal instillations of PBS (2×0.5 ml). Cell differentials were determined by Giemsa stain on cytospin preparations. Cell viability was determined by trypan blue exclusion. Expression of TNF-α, IL-6 and IL-1β in the lung was quantified by TaqMan RealTime RT-PCR. RNA was extracted using TRIzol (Invitrogen). […] RNA levels were quantified using the ΔΔCt method and normalized to expression of murine ribosomal 18s (4310893E, Applied Biosystems). For lung histology, lungs were inflated with 4% paraformaldehyde at 25 cm H2O and 5 μm paraffin sections were stained with hematoxylin and eosin (H&E).
compound,measurement,setting,value
CCCCCCC(=O)CCCCCC/C=C/C[C@@H](O)[C@H](O)[C@@](N)(CO)C(=O)O [myriocin],magnesium-induced relaxation of bronchial rings,isolated bronchial rings [1],impaired
same,SPT-dependent synthesis of sphinganine from 3H-serine,SPT; 3 hours following intranasal administration of myriocin,significantly decreased
same,Non-SPT-dependent syntheses of ceramides or sphingomyelins from 3H-sphingosine,"SPT; after myriocin administration, data not shown",not affected
same,contractile responses of bronchial rings to methacholine,isolated bronchial rings [2],increased
same,expression of IL-6 in the lungs,"lung inflammation; myriocin (20 μg) vs controls, FIG. 4H",No increases
same,expression of IL-1β in the lungs,"lung inflammation; myriocin (20 μg) vs controls, FIG. 4I",No increases
same,TNF-α expression in the lungs,"lung inflammation; myriocin (20 μg) vs controls, FIG. 4J",less
same,number of neutrophils in the BAL,"lung inflammation; myriocin-treated (20 μg) animals, FIG. 4B",small increase
same,inflammatory changes in lung sections (H&E),lung inflammation; myriocin-treated (20 μg) mice,No inflammatory changes
